Data reported in ChEMBL document CHEMBL1201862, “PubChem BioAssay data set” (2004).
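In this assay, cells in 96-well plates receive the compound at five concentrations for 48 hours. Endpoints are linearly interpolated between the surrounding concentrations. GI50 is the concentration that inhibits growth by half.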 The source made the active and inactive calls. Rule as the data show it: active = GI50 up to about 1.1 µM and inactive = higher.

Columns and labels:
Assay in all cases: growth of human tumour cells (NCI), 48 h
Hs-578T = system: Hs-578T
BT-549 = system: BT-549
DU-145 = system: DU-145
T47D = system: T47D
MDA-MB-435 = system: MDA-MB-435
PC-3 = system: PC-3
MDA-N = system: MDA-N
MDA-MB-231 = system: MDA-MB-231

Measured: GI50

O=C1/C(=C/c2ccc(Cl)cc2)N=C(c2ccccc2)N1/N=C/c1ccccc1O
inactive: Hs-578T 36.4 µM | BT-549 16.4 µM | DU-145 21 µM | T47D 6.27 µM | MDA-MB-435 26.7 µM | PC-3 10.3 µM | MDA-N 69.5 µM | MDA-MB-231 15.1 µM
